# Reference: patent US11878994B1, “Compositions for treatment of inflammation” (Metro International Biotech, LLC, priority 2021, dated 2024)
# What was measured:
# Jurkat cells = experiment: NAD Elevation Assay (NAD Cellular Assay), Jurkat cells; format: cell-based; conditions: @ 1 mM, NAD normalized to total protein, multiple of NAD level in untreated cells
# Experimental: Compounds were tested in an NAD Cellular Assay according to the following protocol. Jurkat cells (50,000 per in 100 microliters of RPMI media) were added to wells of a 96 well, conical bottomed plate. The cells were allowed to recover for 3 h in culture. A 16 microliter aliquot of a 100 mM compound stock solution was diluted with 784 microliters of medium and 10% FBS to give 800 microliters of a 2 mM compound treatment solution. The compound treatment solution was added to the cells for a final concentration of 1 mM compound (n=6 wells for each compound.) As a parallel control, nicotinamide mononucleotide (NMN) was added to cells at a final concentration of 2 mM (n=6). The plates were incubated for 24 hours, then spun at 1000 rpm for 10 min. The medium was removed, then the cells were washed with fresh PBS and spun again. The PBS medium was removed, then the cells were washed one more time with PBS and spun. The liquid was removed from each well via pipette, avoiding touching the cell pellet. The cells were lysed with 75 microliters of 0.5% DTAB. […] The NAD concentration in each well was determined using a commercially available assay according to the kit instructions (e.g. Promega NAD/NADH-Glo™ Assay.) The Pierce BCA protein assay was run according to the kit instructions (e.g. ThermoScientific Catalog number 23225). […]
# NDF Cells = experiment: NAD Elevation Assay (NAD Cellular Assay), NDF cells; format: cell-based; conditions: @ 0.25 mM, multiple of NAD level in untreated cells
# Experimental: Compounds were tested in an NAD Cellular Assay according to the following protocol. Jurkat cells (50,000 per in 100 microliters of RPMI media) were added to wells of a 96 well, conical bottomed plate. The cells were allowed to recover for 3 h in culture. A 16 microliter aliquot of a 100 mM compound stock solution was diluted with 784 microliters of medium and 10% FBS to give 800 microliters of a 2 mM compound treatment solution. The compound treatment solution was added to the cells for a final concentration of 1 mM compound (n=6 wells for each compound.) As a parallel control, nicotinamide mononucleotide (NMN) was added to cells at a final concentration of 2 mM (n=6). The plates were incubated for 24 hours, then spun at 1000 rpm for 10 min. The medium was removed, then the cells were washed with fresh PBS and spun again. The PBS medium was removed, then the cells were washed one more time with PBS and spun. The liquid was removed from each well via pipette, avoiding touching the cell pellet. The cells were lysed with 75 microliters of 0.5% DTAB. 25 microliters of the lysate was added to each of two flat bottomed plates. One plate was used for a BCA protein assay (clear), and the other plate was used for the NAD assay (clear bottom, white walled). The NAD concentration in each well was determined using a commercially available assay according to the kit instructions (e.g. Promega NAD/NADH-Glo™ Assay.) The Pierce BCA protein assay was run according to the kit instructions (e.g. ThermoScientific Catalog number 23225). NAD levels were normalized to total protein and reported as a multiple of the NAD level in untreated cells.
# Assays with other cell types were run similarly, using the appropriate compound and NMN dilutions. Cell counts were adjusted as necessary to provide a signal within the reading range of the protein and NAD assay kits.
SMILES,NAD Elevation Assay (Jurkat cells),NAD Elevation Assay (NDF Cells)
"Cn1c(=O)c2c(ncn2CCOC(=O)c2ccc[n+]([C@@H]3O[C@H](CO)[C@@H](O)[C@H]3O)c2)n(C)c1=O.O=S(=O)([O-])C(F)(F)F [Compound 2, 1-((2R,3R,4S,5R)-3,4-dihydroxy-5-(hydroxymethyl)tetrahydrofuran-2-yl)-3-((2-(1,3-dimethyl-2,6-dioxo-1,2,3,6-tetrahydro-7H-purin-7-yl)ethoxy)carbonyl)pyridin-1-ium trifluoromethanesulfonate]",2.9× @ 1,–
"CCCn1cnc2c1c(=O)n(CCOC(=O)c1ccc[n+]([C@@H]3O[C@H](COP(=O)([O-])O)[C@@H](O)[C@H]3O)c1)c(=O)n2C [Compound 7P, ((2R,3 S,4R,5R)-3,4-dihydroxy-5-(3-((2-(3-methyl-2,6-dioxo-7-propyl-2,3,6,7-tetrahydro-1H-purin-1-yl)ethoxy)carbonyl)pyridin-1-ium-1-yl)tetrahydrofuran-2-yl)methyl hydrogen phosphate]",–,1.9× @ 0.25
"Cn1c(=O)c2c(ncn2CC(=O)OCCCOC(=O)c2ccc[n+]([C@@H]3O[C@H](COP(=O)([O-])O)[C@@H](O)[C@H]3O)c2)n(C)c1=O [Compound 6P, ((2R,3S,4R,5R)-5-(3-((3-(2-(1,3-dimethyl-2,6-dioxo-1,2,3,6-tetrahydro-7H-purin-7-yl)acetoxy)propoxy)carbonyl)pyridin-1-ium-1-yl)-3,4-dihydroxytetrahydrofuran-2-yl)methyl hydrogen phosphate]",–,2.0× @ 0.25
"Cn1cnc2c1c(=O)n(CCCOC(=O)c1ccc[n+]([C@@H]3O[C@H](COP(=O)([O-])O)[C@@H](O)[C@H]3O)c1)c(=O)n2C [Compound 5P, ((2R,3S,4R,5R)-5-(3-((3-(3,7-dimethyl-2,6-dioxo-2,3,6,7-tetrahydro-1H-purin-1-yl)propoxy)carbonyl)pyridin-1-ium-1-yl)-3,4-dihydroxytetrahydrofuran-2-yl)methyl hydrogen phosphate]",–,2.2× @ 0.25
